# In ChEMBL document CHEMBL1141993, “Synthesis and biological activity of new 5-O-sugar modified ketolide and 2-fluoro-ketolide antibiotics” (2005):
# Assays:
# Type in all cases: functional
# [1] = test system: Staphylococcus aureus; assay: Minimum inhibitory concentration of compound against Ery-R Staphylococcus aureus 96:11480 was determined
# [2] = test system: Streptococcus pneumoniae; assay: Minimum inhibitory concentration of compound against Ery-R Streptococcus pneumoniae 303 was determined
# [3] = test system: Staphylococcus aureus; assay: Minimum inhibitory concentration of compound against Ery-S Staphylococcus aureus ATCC 29213 was determined
# [4] = test system: Streptococcus pneumoniae; assay: Minimum inhibitory concentration of compound against Ery-S Streptococcus pneumoniae ATCC 49619 was determined
# [5] = test system: Haemophilus influenzae; assay: Minimum inhibitory concentration of compound against Ery-S Haemophilus influenzae ATCC 49247 was determined
# [6] = test system: Streptococcus pyogenes; assay: Minimum inhibitory concentration of compound against Ery-S Streptococcus pyogenes ATCC 19615 was determined
# [7] = test system: Streptococcus pneumoniae; assay: Minimum inhibitory concentration of compound against Ery-R Streptococcus pneumoniae 163 was determined
# [8] = test system: Streptococcus pyogenes; assay: Minimum inhibitory concentration of compound against Streptococcus pyogenes ATCC 13029 Ery-R was determined
# [9] = test system: Streptococcus pneumoniae; assay: Minimum inhibitory concentration of compound against Streptococcus pneumoniae ATCC 49163 Ery-R was determined
# [10] = test system: Streptococcus pneumoniae; assay: Minimum inhibitory concentration of compound against Streptococcus pneumoniae ATCC 49619 Ery-S was determined
# [11] = test system: Haemophilus influenzae; assay: Minimum inhibitory concentration of compound against Haemophilus influenzae ATCC 49247 Ery-S was determined
# [12] = test system: Streptococcus pneumoniae; assay: Minimum inhibitory concentration of compound against Streptococcus pneumoniae ATCC 49303 Ery-R was determined
# [13] = test system: Staphylococcus aureus; assay: Minimum inhibitory concentration of compound against Staphylococcus aureus ATCC 23029 Ery-S was determined
# [14] = test system: Streptococcus pyogenes; assay: Minimum inhibitory concentration of compound against Streptococcus pyogenes ATCC 19615 Ery-S was determined
# [15] = test system: Staphylococcus aureus; assay: Minimum inhibitory concentration of compound against Staphylococcus aureus ATCC 96:11480 Ery-R was determined
# [16] = test system: Streptococcus pyogenes; assay: Minimum inhibitory concentration of compound against Ery-R Streptococcus pyogenes 1721 was determined
# [17] = test system: Streptococcus pneumoniae; assay: Minimum inhibitory concentration of compound against Ery-S Streptococcus pneumoniae 3773 was determined
# [18] = test system: Streptococcus pyogenes; assay: Minimum inhibitory concentration of compound against Ery-R Streptococcus pyogenes ATCC 19615 was determined
# [19] = test system: Streptococcus pyogenes; assay: Minimum inhibitory concentration of compound against Ery-R Streptococcus pyogenes 1850 was determined
# [20] = test system: Streptococcus pneumoniae; assay: Minimum inhibitory concentration of compound against Ery-R Streptococcus pneumoniae 5032 was determined
# [21] = test system: Streptococcus pyogenes; assay: Minimum inhibitory concentration of compound against Ery-R Streptococcus pyogenes 3029 was determined
# [22] = test system: Streptococcus pyogenes; assay: Minimum inhibitory concentration of compound against Ery-R Streptococcus pyogenes 3262 was determined
# [23] = test system: Streptococcus pneumoniae; assay: 1 Minimum inhibitory concentration of compound against Ery-R Streptococcus pneumoniae 163 was determined
# [24] = test system: Streptococcus pyogenes; assay: Minimum inhibitory concentration of compound against Ery-R Streptococcus pyogenes 13029 was determined
# [25] = test system: Staphylococcus aureus; assay: Minimum inhibitory concentration of compound against Ery-S Staphylococcus aureus ATCC 23029 was determined
Compound,MIC [1] [µg/mL],MIC [2] [µg/mL],MIC [3] [µg/mL],MIC [4] [µg/mL],MIC [5] [µg/mL],MIC [6] [µg/mL],MIC [7] [µg/mL],MIC [10] [µg/mL],MIC [16] [µg/mL],MIC [17] [µg/mL],MIC [19] [µg/mL],MIC [20] [µg/mL],MIC [21] [µg/mL],MIC [22] [µg/mL],also measured
CC[C@H]1OC(=O)[C@H](C)C(=O)[C@H](C)[C@@H](O[C@@H]2OC[C@@H](O)[C@H](N(C)C)[C@H]2O)[C@@](C)(OC)C[C@@H](C)C(=O)[C@H](C)[C@H]2N(CCCCn3cc(-c4ccccn4)nn3)C(=O)O[C@]12C,4,16,4,4,> 64,≤ 0.125,2,,,,,,,,
CC[C@H]1OC(=O)[C@H](C)C(=O)[C@H](C)[C@@H](O[C@@H]2O[C@H](COCc3ccccc3)C[C@H](N(C)C)[C@H]2O)[C@@](C)(OC)C[C@@H](C)C(=O)[C@H](C)[C@H]2N(CCCCn3cc(-c4ccccn4)nn3)C(=O)O[C@]12C,,,,,,,,≤ 0.125,,,,,,,MIC [8]: 0.5 µg/mL; MIC [9]: ≤ 0.125 µg/mL; MIC [11]: 64 µg/mL; MIC [12]: ≤ 0.125 µg/mL
CC[C@H]1OC(=O)[C@H](C)C(=O)[C@H](C)[C@@H](O[C@@H]2O[C@H](COCc3ccccc3)[C@@H](O)[C@H](N(C)C)[C@H]2O)[C@@](C)(OC)C[C@@H](C)C(=O)[C@H](C)[C@H]2N(CCCCn3cc(-c4ccccn4)nn3)C(=O)O[C@]12C,,,,,,,,≤ 0.125,,,,,,,MIC [13]: ≤ 0.125 µg/mL; MIC [8]: 2 µg/mL; MIC [9]: ≤ 0.125 µg/mL; MIC [14]: ≤ 0.125 µg/mL; MIC [15]: ≤ 0.125 µg/mL; MIC [11]: 64 µg/mL; MIC [12]: ≤ 0.125 µg/mL
CC[C@H]1OC(=O)[C@@](C)(F)C(=O)[C@H](C)[C@@H](O[C@@H]2O[C@H](COCc3ccccc3)[C@@H](O)[C@H](N(C)C)[C@H]2O)[C@@](C)(OC)C[C@@H](C)C(=O)[C@H](C)[C@H]2N(CCCCn3cc(-c4cccc(N)c4)nn3)C(=O)O[C@]12C,,≤ 0.125,,≤ 0.125,4,,≤ 0.125,,8,8,0.25,4,0.5,4,MIC [18]: ≤ 0.125 µg/mL
CC[C@H]1OC(=O)[C@@](C)(F)C(=O)[C@H](C)[C@@H](O[C@@H]2O[C@H](COCc3ccccc3)C[C@H](N(C)C)[C@H]2O)[C@@](C)(OC)C[C@@H](C)C(=O)[C@H](C)[C@H]2N(CCCCn3cc(-c4cccc(N)c4)nn3)C(=O)O[C@]12C,,≤ 0.125,,≤ 0.125,4,,≤ 0.125,,8,4,0.25,0.25,≤ 0.125,0.5,
CC[C@H]1OC(=O)[C@H](C)C(=O)[C@H](C)[C@@H](O[C@@H]2O[C@H](C)C[C@H](N(C)C)[C@H]2O)[C@@](C)(OC)C[C@@H](C)C(=O)[C@H](C)[C@H]2N(CCCCn3cc(-c4ccccn4)nn3)C(=O)O[C@]12C,0.125,≤ 0.125,≤ 0.125,≤ 0.125,4,≤ 0.125,≤ 0.125,,,,,,> 64,,
CC[C@H]1OC(=O)[C@H](C)C(=O)[C@H](C)[C@@H](O[C@@H]2O[C@H](C)[C@@H](O)[C@H](O)[C@H]2O)[C@@](C)(OC)C[C@@H](C)C(=O)[C@H](C)[C@H]2N(CCCCn3cc(-c4ccccn4)nn3)C(=O)O[C@]12C,> 64,16,> 64,,> 64,,2,4,,,,,,,MIC [14]: 8 µg/mL
CC[C@H]1OC(=O)[C@H](C)C(=O)[C@H](C)[C@@H](O[C@@H]2O[C@H](C)[C@@H](O)[C@H](N(C)C)[C@H]2O)[C@@](C)(OC)C[C@@H](C)C(=O)[C@H](C)[C@H]2N(CCCCn3cc(-c4ccccn4)nn3)C(=O)O[C@]12C,0.25,16,≤ 0.125,≤ 0.125,16,≤ 0.125,0.5,,,,,,> 64,,
CC[C@H]1OC(=O)[C@@](C)(F)C(=O)[C@H](C)[C@@H](O[C@@H]2O[C@H](CO)[C@@H](O)[C@H](N(C)C)[C@H]2O)[C@@](C)(OC)C[C@@H](C)C(=O)[C@H](C)[C@H]2N(CCCCn3cc(-c4cccc(N)c4)nn3)C(=O)O[C@]12C,,≤ 0.125,,≤ 0.125,> 32,,≤ 0.125,,> 32,> 32,> 32,> 32,> 32,> 32,MIC [18]: ≤ 0.125 µg/mL
CC[C@H]1OC(=O)[C@H](C)C(=O)[C@H](C)[C@@H](O[C@@H]2O[C@H](CO)[C@@H](O)[C@H](N(C)C)[C@H]2O)[C@@](C)(OC)C[C@@H](C)C(=O)[C@H](C)[C@H]2N(CCCCn3cc(-c4ccccn4)nn3)C(=O)O[C@]12C,64,≤ 0.125,4,≤ 0.125,64,≤ 0.125,,,,,,,> 64,,MIC [23]: 4 µg/mL
CC[C@H]1OC(=O)[C@H](C)[C@@H](O[C@H]2C[C@@](C)(OC)[C@@H](O)[C@H](C)O2)[C@H](C)[C@@H](O[C@@H]2O[C@H](C)C[C@H](N(C)C)[C@H]2O)[C@](C)(O)C[C@@H](C)CN(C)[C@H](C)[C@@H](O)[C@]1(C)O [AZITHROMYCIN],≥ 64,> 64,,≤ 0.125,4,≤ 0.125,8,,> 64,> 64,> 64,> 64,,> 64,MIC [24]: > 64 µg/mL; MIC [25]: 1 µg/mL
CC[C@H]1OC(=O)[C@H](C)C(=O)[C@H](C)[C@@H](O[C@@H]2O[C@H](C)C[C@H](N(C)C)[C@H]2O)[C@](C)(OC)C[C@@H](C)C(=O)[C@H](C)[C@H]2N(CCCCn3cnc(-c4cccnc4)c3)C(=O)O[C@]12C [TELITHROMYCIN],≤ 0.125,≤ 0.125,≤ 0.125,,4,≤ 0.125,≤ 0.125,≤ 0.125,64,1,8,0.5,16,32,
